From patent publication US20100197587A1, “USE OF A PEPTIDE AS A THERAPEUTIC AGENT” (priority 2007, published 2010)
No end group written: not given here.

What was measured:
HIV-1IIIB = experiment: HIV-1 antiviral assay in CEM-SS cells (MTS readout); conditions: positive controls
HCMV strain AD169 = experiment: HCMV plaque formation assay in MRC-5 cells; conditions: for inhibition of HCMV plaque formation as compared to the virus control experiment: 10 micrograms per ml, 7-10 days
spleen cells = experiment: Th1/Th2 cytokine profiling assay (Ovalbumin-restimulated spleen cells); conditions: 10 micrograms per ml; Ovalbumin restimulation, 72 hours, supernatant
Excerpt: The Balb/c mice (originated in 1923, it is a popular strain and is used in many different research disciplines. Also classified as an inbred from the production of 20 or more successive brother-sister matings, the Balb/c mouse is albino and small in size) were immunized on Days 1, 15, and 29 with Ovalbumin (Ovalbumin is the main protein found in egg white, commonly used to stimulate an immunological reaction in test animals) in PBS (5 micrograms/injection). On day 50, spleens of the mice were harvested (3 weeks after last boost with Ovalbumin). […] Thereafter, additional Ovalbumin was added to the cells at 10 micrograms/ml for in vitro restimulation of the cells. 72 hours later, cell supernatants were harvested and assayed using the Becton Dickinson Mouse Th1/Th2 Cytokine CBA Kit. This kit can be used to measure Interleukin-2 (IL-2), Interleukin-4 (IL-4), Interleukin-5 (IL-5), Interferon-γ (IFN-γ), and Tumor Necrosis Factor-α (TNF-α) protein levels in a single sample.

[1] = test system: RAW 264.7 (Mouse leukaemic monocyte macrophage cell line) cells; experiment: Phagocytosis assay (Fluorescein-labeled Escherichia coli, flow cytometry); assay type: cell-based; conditions: 10 micrograms per ml; RAW 264.7, Fluorescein-labeled E. coli
[2] = test system: hepatitis B virus (HBV) ayw strain; experiment: HBV assay in HepG2-2.2.15 cells (secreted HBV DNA by TaqMan PCR); assay type: cell-based; conditions: 10 micrograms per ml; HepG2-2.2.15, six days, HBV DNA in supernatant

Compound	antiviral activity of positive control compounds (HIV-1) (HIV-1IIIB)	inhibition of HCMV plaque formation as compared to the virus control experiment (HCMV strain AD169)	IFNγ spleen cells; TH1 response (% of control) (spleen cells)	IL-2 spleen cells (% of control) (spleen cells)	IL-4 spleen cells; TH2 response (% of control) (spleen cells)	IL-5 spleen cells; TH2 response (% of control) (spleen cells)	TNF-a spleen cells; TH1 response (% of control) (spleen cells)	inhibition of HBV replication as compared to the virus control infection [2] [%]	other results
Cc1cn([C@H]2C[C@H](N=[N+]=[N-])[C@@H](CO)O2)c(=O)[nH]c1=O [AZT]	expected levels of antiviral activity	–	–	–	–	–	–	–	–
Nc1nc(O)c2ncn(COC(CO)CO)c2n1 [Ganciclovir, reference compound]	–	–	–	–	–	–	–	–	antiviral activity of positive control compound (HCMV) (HCMV strain AD169; positive control, HCMV AD169): expected levels of antiviral activity
CC(C)(C)NC(=O)[C@@H]1CN(Cc2cccnc2)CCN1C[C@@H](O)C[C@@H](Cc1ccccc1)C(=O)N[C@H]1c2ccccc2C[C@H]1O [indinavir]	expected levels of antiviral activity	–	–	–	–	–	–	–	–
His-Ala-Asp-Gly-Ser-Phe-Ser-Asp-Glu-Met-Asn-Thr-Ile-Leu-Asp-Asn-Leu-Ala-Ala-Arg-Asp-Phe-Ile-Asn-Trp-Leu-Ile-Gln-Thr-Lys-Ile-Thr-Asp-Arg-OH (HADGSFSDEMNTILDNLAARDFINWLIQTKITDR-OH) [Peptide 1]	–	did not inhibit	132.7 % of control	0.0 % of control	0.0 % of control	48.2 % of control	102.2 % of control	59.7	increase of the phagocytic activity of murine macrophages [1]: 22.9%
His-Ala-Asp-Gly-Ser-Phe-Ser-Asp-Glu-Met-Asn-Thr-Ile-Leu-Asp-Asn-Leu-Ala-Ala-Arg-Asp-Phe-Ile-Asn-Trp-Leu-Ile-Gln-Thr-Lys-Ile-Thr-Asp-OH [Peptide 2]	–	18.8%	132.7 % of control	183.3 % of control	104.4 % of control	108.4 % of control	143.7 % of control	59.2	inhibitory effects on the phagocytic activity of murine macrophages [1]: no inhibitory effects
